Converted amounts (≈) assume the structure as drawn. Where two headings read alike, the source gives them in different places. Starred links: 1 amine or outer side, 2 acyl side, 3 side chain; linkers in the order of their positions; H or OH if unused. Positions of bridges follow the written chain, without caps; N, C: chain ends. Residues, ends and D or L forms follow the SMILES beside them. *: point of attachment. C20 diacid = O=C(O)CCCCCCCCCCCCCCCCCCC(=O)*; γGlu = O=C(O)[C@H](CCC(=O)[*:2])N[*:1]
Tests used:
[1] = target: T1, human amylin receptor (amylin 3(a) receptor: human calcitonin receptor + RAMP-3) (Homo sapiens, UniProt O60896+P30988); experiment: Assay (II)a functional CRE-luciferase assay, human amylin receptor; type: cell-based; settings: Table 2; BHK amylin 3(a)-receptor/CRE-luc cells
T1 construct: expressed in transfected cells; host or cells: BHK570
T1 sequence (P30988 25-474): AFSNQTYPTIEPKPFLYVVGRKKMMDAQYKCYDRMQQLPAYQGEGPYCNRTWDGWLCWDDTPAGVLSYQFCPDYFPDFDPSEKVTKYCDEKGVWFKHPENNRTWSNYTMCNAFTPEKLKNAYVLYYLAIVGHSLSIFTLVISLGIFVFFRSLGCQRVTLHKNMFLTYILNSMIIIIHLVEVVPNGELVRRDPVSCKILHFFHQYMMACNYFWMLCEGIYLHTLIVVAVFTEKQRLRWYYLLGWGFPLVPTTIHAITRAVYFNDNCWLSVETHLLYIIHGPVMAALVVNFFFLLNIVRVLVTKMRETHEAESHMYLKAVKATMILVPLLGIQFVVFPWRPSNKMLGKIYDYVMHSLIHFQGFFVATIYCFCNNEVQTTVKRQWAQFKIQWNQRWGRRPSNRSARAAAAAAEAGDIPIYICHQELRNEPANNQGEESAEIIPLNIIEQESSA
T1 sequence (O60896 24-148 partner): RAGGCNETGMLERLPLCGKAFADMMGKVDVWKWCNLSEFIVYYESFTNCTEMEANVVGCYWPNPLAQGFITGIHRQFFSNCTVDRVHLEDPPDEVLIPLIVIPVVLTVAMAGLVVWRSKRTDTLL

[2] = target: T2, human calcitonin receptor (Homo sapiens, UniProt P30988); experiment: Assay (II)a functional CRE-luciferase assay, human calcitonin receptor; type: cell-based; settings: Table 7; human calcitonin (CTa) receptor
T2 construct: expressed in transfected cells; host or cells: BHK570
T2 sequence (P30988 25-474): T1 sequence (P30988 25-474)

[3] = target: T3, rat amylin 3(a) receptor (rat calcitonin(a) receptor + rat RAMP3) (Rattus norvegicus, UniProt P32214+Q9JJ73); experiment: Assay (II)b functional cAMP FlashPlate assay, rat amylin receptor; type: cell-based; settings: Table 11
T3 construct: expressed in transfected cells; host or cells: BHK tk'ts 13
T3 sequence (P32214 25-479 isoform P32214-2 limits assumed): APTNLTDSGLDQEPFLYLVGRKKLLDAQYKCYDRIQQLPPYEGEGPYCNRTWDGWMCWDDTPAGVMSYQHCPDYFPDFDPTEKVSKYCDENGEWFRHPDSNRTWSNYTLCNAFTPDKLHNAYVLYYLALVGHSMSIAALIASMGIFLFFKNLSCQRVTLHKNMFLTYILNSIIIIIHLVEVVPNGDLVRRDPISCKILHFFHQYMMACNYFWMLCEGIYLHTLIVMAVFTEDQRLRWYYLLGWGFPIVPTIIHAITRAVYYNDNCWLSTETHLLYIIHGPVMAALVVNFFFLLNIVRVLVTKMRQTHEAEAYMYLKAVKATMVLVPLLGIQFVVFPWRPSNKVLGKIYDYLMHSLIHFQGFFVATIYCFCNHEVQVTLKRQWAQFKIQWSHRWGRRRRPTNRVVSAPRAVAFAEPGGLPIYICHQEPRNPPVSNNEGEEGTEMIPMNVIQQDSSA
T3 sequence (Q9JJ73 23-147 partner): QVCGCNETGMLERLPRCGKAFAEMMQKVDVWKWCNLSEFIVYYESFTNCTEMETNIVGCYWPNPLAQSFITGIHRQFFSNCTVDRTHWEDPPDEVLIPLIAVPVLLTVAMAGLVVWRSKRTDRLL
Summary of the method: (§1)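 BHK tk'ts 13 cells transiently transfected with rat calcitonin(a) receptor, alone or with rat RAMP3 (amylin 3(a)), were stimulated 24 hours later with sample for 30 min in buffer containing IBMX. cAMP measured by competitive radioactive FlashPlate assay, scintillation read after 3 h detection incubation.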

[4] = target: T4, rat calcitonin (a) receptor (Rattus norvegicus, UniProt P32214); experiment: Assay (II)b functional cAMP FlashPlate assay, rat calcitonin receptor; type: cell-based; settings: Table 11; read-out: CTa receptor rat EC50
T4 construct: expressed in transfected cells; host or cells: BHK tk'ts 13
T4 sequence (P32214 25-479 isoform P32214-2 limits assumed): T3 sequence (P32214 25-479 isoform P32214-2 limits assumed)
Summary of the method: as §1

[5] = Assay (IV) determination of solubility; type: physicochemical
Summary of the method: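 Polypeptide in water (~500 nmol/ml) mixed 1:1 with 100 mM glycylglycine (pH 3.0–5.0) or bistrispropane (pH 6.0–8.0) buffers. Held 18 hours at room temperature, then centrifuged. Polypeptide remaining in solution quantified by HPLC.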

[6] = Assay (IX) pK, determination of T½ in mini-pig; type: in vivo, Göttingen mini-pigs; settings: male, Göttingen, iv, 2 nmol/kg; minipig; plasma terminal half-life

EC50 [1]: 0.0853 nM | EC50 [2]: 0.208 nM | EC50 [3]: 0.0885 nM | EC50 [4]: 0.962 nM | solubility at 18 h ([5]; bistrispropane buffer, pH 6, pH 6.0, read-out: Solubility pH 6.0): > 200 µM | solubility at 18 h ([5]; bistrispropane buffer, pH 6.5, pH 6.5, read-out: Solubility pH 6.5): 44 µM (≈ 209 µg/mL) | solubility at 18 h ([5]; bistrispropane buffer, pH 7, pH 7.0, read-out: Solubility pH 7.0): 29 µM (≈ 137 µg/mL) | solubility at 18 h ([5]; bistrispropane buffer, pH 7.5, pH 7.5, read-out: Solubility pH 7.5): 157 µM (≈ 744 µg/mL) | solubility at 18 h ([5]; bistrispropane buffer, pH 8, pH 8.0, read-out: Solubility pH 8.0): > 200 µM | solubility at 18 h ([5]; glycylglycine buffer, pH 3, pH 3.0, read-out: Solubility pH 3.0): > 200 µM | solubility at 18 h ([5]; glycylglycine buffer, pH 4, pH 4.0, 18 hours at room temperature, Table 2, read-out: Solubility pH 4.0): > 200 µM | solubility at 18 h ([5]; glycylglycine buffer, pH 4, pH 4.0, read-out: Solubility pH 4.0): > 200 µM | solubility at 18 h ([5]; glycylglycine buffer, pH 5, pH 5.0, read-out: Solubility pH 5.0): > 200 µM | half-life [6]: 4.42 days
Structure (SMILES): CC[C@H](C)[C@H](NC(=O)[C@@H]1CCCN1C(=O)CNC(=O)[C@H](Cc1ccccc1)NC(=O)[C@H](CC(N)=O)NC(=O)[C@H](CC(N)=O)NC(=O)[C@H](CO)NC(=O)[C@H](CO)NC(=O)[C@H](Cc1cnc[nH]1)NC(=O)[C@H](Cc1cnc[nH]1)NC(=O)[C@H](CC(C)C)NC(=O)[C@H](Cc1ccccc1)NC(=O)[C@H](CCC(=O)O)NC(=O)[C@H](C)NC(=O)[C@H](CC(C)C)NC(=O)[C@H](CCCNC(=N)N)NC(=O)[C@H](CCC(N)=O)NC(=O)[C@@H](NC(=O)[C@H](C)NC(=O)[C@@H]1CSSC[C@H](NC(=O)[C@H](Cc2cnc[nH]2)NC(=O)[C@H](Cc2cnc[nH]2)NC(=O)[C@H](Cc2cnc[nH]2)NC(=O)CC[C@H](NC(=O)CCCCCCCCCCCCCCCCCCC(=O)O)C(=O)O)C(=O)N[C@@H](CC(N)=O)C(=O)N[C@@H]([C@@H](C)O)C(=O)N[C@@H](C)C(=O)N[C@@H]([C@@H](C)O)C(=O)N1)[C@@H](C)O)C(=O)N[C@@H](CC(C)C)C(=O)N1CCC[C@H]1C(=O)N1CCC[C@H]1C(=O)N[C@H](C(=O)N[C@@H](CC(N)=O)C(=O)N[C@H](C(=O)NCC(=O)N[C@@H](CO)C(=O)N[C@@H](CC(N)=O)C(=O)N[C@H](C(=O)N[C@@H](Cc1ccc(O)cc1)C(N)=O)[C@@H](C)O)C(C)C)[C@@H](C)O [Example 11, N-alpha-[(S)-4-Carboxy-4-(19-carboxynonadecanoylamino)butyryl]-His-His-[His1,Glu14,His17]-pramlintide] ({C20 diacid-γGlu}-HHHCNTATCATQRLAEFLHHSSNNFGPILPPTNVGSNTY-NH2; disulfide 4-9)

— patent US8722849B2, “Polypeptides” (Novo Nordisk A/S, priority 2011, dated 2014)
